The target in the assay is T1, MMP-13 (Homo sapiens, UniProt P45452).
T1 construct: 10 μL of a 50 nM stock solution of catalytic domain of MMP-13 enzyme; purchased Invitek (Berlin) 30100812
The assay is described as follows: Assay for Determining MMP-13 Inhibition. Particulars: catalytic domain of MMP-13, fluorescent substrate. The class given is biochemical. On the procedure:
The typical assay for MMP-13 activity is carried out in assay buffer comprised of 50 mM Tris, pH 7.5, 150 mM NaCl, 5 mM CaCl2 and 0.05% Brij-35. Different concentrations of tested compounds are prepared in assay buffer in 50 μL aliquots. 10 μL of a 50 nM stock solution of catalytic domain of MMP-13 enzyme (produced by Alantos or commercially available from Invitek (Berlin), Cat.# 30100812) is added to the compound solution. The mixture of enzyme and compound in assay buffer is thoroughly mixed and incubated for 10 min at room temperature. Upon the completion of incubation, the assay is started by addition of 40 μL of a 12.5 μM stock solution of MMP-13 fluorescent substrate (Calbiochem, Cat. No. 444235). The time-dependent increase in fluorescence is measured at the 320 nm excitation and 390 nm emission by automatic plate multireader. The IC50 values are calculated from the initial reaction rates.

As usually defined, the IC50 is the concentration needed to halve the response being measured. In the case of `Nc1c(N2CCc3ccc(CNC(=O)c4cnc5ccccc5n4)cc3C2)c(=O)c1=O` [2/50], the IC50 is below 500 nM.

In the case of `Nc1c(N2CCc3ccc(CNC(=O)c4nc(O)nc5ccccc45)cc3C2)c(=O)c1=O` [Example 1], the IC50 was below 500 nM.

For the origin of these results see patent US20080221094A1, “Metalloprotease inhibitors containing a squaramide moiety” (priority 2007, published 2008).
